Assay results reported in patent publication US10533034B2, “Human iNKT cell activation using glycolipids” (ACADEMIA SINICA, priority 2014, dated 2020).

Assays:
[1] = target: Vα24+/Vβ11+ iNKT TCR (Homo sapiens, UniProt A0A075B6N4+A0A0B4J240+P15813); experiment: Binding avidity of hCD1d-loaded glycolipids with Vα24+ iNKT cells (ternary interaction); settings: in complex with hCD1d; Scatchard transformation; read-out: KD of ternary complex, hCD1d-glycolipid toward Vα24+/Vβ11+ iNKT TCR
Experimental: (3A) DN3A4-1.2 Vα14+ iNKT hybridoma cells and (3B) 7DW8-5-expanded Vα24^+ iNKT cells were incubated with various concentrations of the indicated dimeric mCD d-glycolipid and hCD1d-glycolipid complexes for 30 min at 4° C., respectively. The level of bound complexes at the indicated concentration was detected by anti-mIgG1 secondary antibody and analyzed by flow cytometry. The relationship between the binding percentage and the concentration of CD1ddi-glycolipids complex was plotted in mice (3A) and humans (3B). KD values in mice (3C) and humans (3D) were calculated from Scatchard transformation of the plot (3A) and 3B), respectively. Assay was performed in duplicates. Binding avidity of human CD1d-glycolipid complexes to Vα24^+ iNKT cells expanded by 7DW8-5 at 100 ng/ml was determined as described previously.^19 Next, we measured the ternary interaction between CD1d-glcolipid complex and the iNKT TCR in mice and humans. Different concentrations of mCD1d^di-glycolipid and hCD1d^di-glycolipid complexes were incubated with fixed amounts of DN3A4-1.2 murine iNKT hybridoma cells and human Vα24+/Vβ11^+ iNKT cells, respectively. The level of bound complexes at the indicated concentration was detected by anti-mIgG1 secondary antibody and analyzed by flow cytometry (FIGS. 3A and 3B). The KD of the ternary complex was calculated from the Scatchard transformation of the plots in FIGS. 3A and 3B using GraphPad Prism software. […] This was consistent with the observation that higher percentages of C1-pulsed splenocytes were stained by the mCD1d-7DW8-5 complex (36.2±5.0%) than mCD1d-7DW8-5-Glc complex (17.1±0.8%) (FIG. 11).

[2] = system: iNKT TCR of DN3A4-1.2 Vα14+ iNKT hybridoma cells; experiment: Binding avidity of mCD1d-loaded glycolipids to Vα14+ iNKT cells (ternary interaction); set-up: species or system mouse; settings: complexed with mCD1d; Scatchard transformation; flow cytometry; read-out: KD of ternary complex, mCD1d-glycolipid toward iNKT TCR
Experimental: (3A) DN3A4-1.2 Vα14+ iNKT hybridoma cells and (3B) 7DW8-5-expanded Vα24^+ iNKT cells were incubated with various concentrations of the indicated dimeric mCD d-glycolipid and hCD1d-glycolipid complexes for 30 min at 4° C., respectively. The level of bound complexes at the indicated concentration was detected by anti-mIgG1 secondary antibody and analyzed by flow cytometry. The relationship between the binding percentage and the concentration of CD1ddi-glycolipids complex was plotted in mice (3A) and humans (3B). KD values in mice (3C) and humans (3D) were calculated from Scatchard transformation of the plot (3A) and 3B), respectively. Assay was performed in duplicates.
Briefly, murine CD1d:Ig dimer (BD Biosciences PharMingen, San Diego, Calif.) was loaded with glycolipids at a molar ratio of 1:10 or vehicle for overnight at 37° C. Murine 1.2 Vα14+ iNKT cells were incubated with various doses of dimer-glycolipid complex in buffer containing azide (0.05%) for 30 min at 4° C. These cells were then stained with anti-mouse IgG1-PE mAb (A85-1) for another 30 min at 4° C., followed by washing, fixation with 4% paraformaldehyde (PFA), and the bound mCD1d dimer complexes were detected by flow cytometry. The binding curve and linear fit of the Scatchard transformation were plotted by Graphpad Prism software.
Next, we measured the ternary interaction between CD1d-glcolipid complex and the iNKT TCR in mice and humans. Different concentrations of mCD1d^di-glycolipid and hCD1d^di-glycolipid complexes were incubated with fixed amounts of DN3A4-1.2 murine iNKT hybridoma cells and human Vα24+/Vβ11^+ iNKT cells, respectively. The level of bound complexes at the indicated concentration was detected by anti-mIgG1 secondary antibody and analyzed by flow cytometry (FIGS. 3A and 3B). The KD of the ternary complex was calculated from the Scatchard transformation of the plots in FIGS. 3A and 3B using GraphPad Prism software. […] This was consistent with the observation that higher percentages of C1-pulsed splenocytes were stained by the mCD1d-7DW8-5 complex (36.2±5.0%) than mCD1d-7DW8-5-Glc complex (17.1±0.8%) (FIG. 11).

[3] = system: B6 WT mice splenocytes; experiment: FACS analyses of WT mouse immune cells after glycolipid stimulation; format: in vivo; settings: 1 μg/mouse; 72 hr
Experimental: B6 WT mice treated with the indicated glycolipid (1 μg/mouse) or vehicle (1% DMSO in PBS) were sacrificed at 72 hr post-injection and their splenocytes were subjected to FACS analysis. (8A) The total splenocytes, (8B) total CD11Chi cells, (8C) CD11Chi/CD80+ cells, (8D) CD11Chi/CD86+ cells, (8E) CD4^+ T cells and (8F) CD8^+ T cells.
B6 WT or Jα18 KO mice treated with specific glycolipid (1 μg/mouse) or vehicle (1% DMSO in PBS) were sacrificed at 72 hr post-injection and their spleens were harvested. After pressing spleens through 70 um strainer and lysis of erythrocytes, the nucleated cells were resuspended in PBS buffer containing azide (0.05%) and stained with antibodies recognizing the indicated cell surface antigens for 30 min at 4° C. After washing, the splenocytes were subjected to FACS analysis. The antibodies against CD3, CD4, CD8α, CD11c, CD80, and CD86 were obtained from BD Bioscience-Pharmingen.
Next, we analyzed the expansion/activation of immune cells in WT mice 3 days after glycolipid stimulation. The numbers of total T cells, CD4^+ T and CD8^+ T cells were higher in mice treated by GSLs with αGal head than those treated by GSLs with αGlc (FIGS. 2C, 8E and 8F). This was in line with the observation that more cytokines/chemokines were induced by GSLs with αGal than GSLs with αGlc in mice (FIGS. 2A, 2B and 7). […] As compared to 7DW8-5-Glc, C1-Glc not only expanded ˜1.3 fold more splenocytes and DCs (FIGS. 8A and 8B) but also activated ˜3.5 fold more CD80^+ DCs as well as ˜3 fold more CD86^+ DCs (FIGS. 8C and 8D). The increased expansion/activation of DCs may contribute to the stronger immunogenicity triggered by C1-Glc and C34-Glc as compared to 7DW8-5-Glc in vivo.

[4] = system: B6 wild type mice; experiment: Murine serum cytokine/chemokine secretion after i.v. glycolipid, wild type mice; format: in vivo, mouse; settings: 1 μg/mouse i.v.; 2 and 18 hr
Experimental: B6 wild type mice were i.v. injected with 7DW8-5-Glc at 0.1 or 1 μg/mouse. Sera collected at 2 h and 18 h post-injection were analyzed for chemokine secretions such as IP-10 (6A), KC (6B), MCP-1 (6C), and MIP-1α (6D). These chemokines peaked at 2 hr post-injection.
B6 wild type and Jα18 knockout mice were i.v. injected with the indicated glycolipids (1 μg/mouse) or vehicle. Sera collected at 2 h and 18 h post-injection were analyzed for cytokines like IL-2 (7A), IL-6 (7B), GM-CSF (7C) and TNFα (7D) as well as chemokines such as IP-10 (7E), MIG (7F), KC (7G) and MCP-1 (7H). Only MIG peaked at 18 hr post-injection, while the others peaked at 2 hr post-injection.
All the glycolipids were dissolved in 100% DMSO at a concentration of 1-2 mg/ml. For in vivo experiments, all compounds were diluted to 10 μg/ml in saline just before injection of 100 μl diluted glycolipid or 100 μl 1% DMSO into mice. Pathogen-free C57BL/6 female mice aged 6-12 weeks were obtained from the National Laboratory Animal Center (Taipei, Taiwan). Jα18 knockout (KO) B6 mice were the gifts from Dr. Masaru Taniguchi (RIKEN Research Center for Allergy and Immunology, Yokohama, Japan). All the mice were maintained in pathogen free vivarium of Institute of Cellular and Organismic Biology, Academia Sinica (Taipei, Taiwan).
B6 WT or Jα18 KO mice were intravenously injected with vehicle or glycolipids at 0.1 or 1 μg/mouse. Serum was collected at 2 and 18 h after injection for measurement of cytokines/chemokines by Beadlyte® Mouse Cytokine kit (Millipore, N.Y.) and read by a Luminex® 200™ system (Luminex, Austin, Tex.).
Previously, 0.1 μg/mouse of 7DW8-5 was sufficient for immune stimulation,^19 but higher dosage (1 μg/mouse) was required for the glucose analog 7DW8-5-Glc to induce immune responses (FIG. 6). Thus, the biological activities of newly synthesized glycolipids were tested in B6 mice 2 and 18 hr after i.v. injection of glycolipids at 1 μg/mouse. […] As compared to GSLs with αGlc, GSLs with αGal induced higher levels of cytokines and chemokines, including IFN-γ, IL-2, IL-4, IL-6, GM-CSF, TNFα and IP-10.

[5] = system: human Vα24-restricted NKT cells; experiment: Cytokine production of human iNKT cells co-cultured with autologous DCs and glycolipids (Luminex); format: cell-based; settings: 1 μg/mL; 72 hrs
Experimental: Human Vα24-restricted NKT cells were isolated from PBMC by magnetic beads, and iNKT cells were cultured with 50 μ/mL recombinant human IL-2. Two days later, iNKT cells were co-cultured with autologous monocyte-derived DCs and different glycolipids at 1 μg/mL in 96 wells. At 72 hrs, the supernatant were collected to determine the cytokines profiles by Luminex. (A) Secretion of IFN-γ and IL-4 was similar among all glycolipids. […] One-way ANOVA was used for statistic analysis. ***P<0.001 compared with C1. #, P<0.05 compared to C34.
To compare the capacities of C1, C34, K691, K705 and K706 in activating human iNKT cells, human Vα24-restricted NKT cells were isolated from PBMC by magnetic beads, and incubated with recombinant human IL-2 ([…]). Two days later, iNKT cells were co-cultured with autologous monocyte-derived DCs loaded with different glycolipids (1 μg/mL), including C1, C34, K691, K705 and K706, in 96 wells for three days. The supernatants were collected to determine cytokines/chemokines by Luminex assay. […] (Statistical evaluation was performed using one-way ANOVA. *P<0.05 compared with C1. #, P=0.002 compared with C34, using Student's T test).

Chain of Vα24+/Vβ11+ iNKT TCR (P01848 whole entry): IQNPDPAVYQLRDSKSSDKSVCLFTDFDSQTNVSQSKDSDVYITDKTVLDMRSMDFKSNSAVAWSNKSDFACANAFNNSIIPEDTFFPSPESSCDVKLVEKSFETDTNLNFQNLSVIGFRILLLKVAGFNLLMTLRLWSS
Chain of Vα24+/Vβ11+ iNKT TCR (A0A075B6N4 22-114): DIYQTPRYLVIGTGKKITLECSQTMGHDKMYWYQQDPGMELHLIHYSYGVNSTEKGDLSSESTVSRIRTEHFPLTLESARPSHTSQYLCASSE
Chain of Vα24+/Vβ11+ iNKT TCR (P61769 21-119, further chain): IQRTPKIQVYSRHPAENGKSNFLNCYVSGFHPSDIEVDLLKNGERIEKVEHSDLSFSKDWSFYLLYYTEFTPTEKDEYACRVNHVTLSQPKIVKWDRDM
Chain of Vα24+/Vβ11+ iNKT TCR (A0A0B4J240 22-114): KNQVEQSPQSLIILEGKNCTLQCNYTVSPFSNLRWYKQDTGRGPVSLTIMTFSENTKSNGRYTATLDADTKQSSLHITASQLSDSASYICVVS
Chain of Vα24+/Vβ11+ iNKT TCR (P15813 20-301): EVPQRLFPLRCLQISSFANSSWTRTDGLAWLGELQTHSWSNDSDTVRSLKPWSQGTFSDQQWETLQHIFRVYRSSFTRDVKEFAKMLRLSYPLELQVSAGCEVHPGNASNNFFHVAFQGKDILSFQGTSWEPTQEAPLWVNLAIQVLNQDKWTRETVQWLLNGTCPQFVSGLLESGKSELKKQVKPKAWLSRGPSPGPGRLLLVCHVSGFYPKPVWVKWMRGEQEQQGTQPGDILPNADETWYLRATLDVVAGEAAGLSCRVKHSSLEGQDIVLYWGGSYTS

Row | SMILES | Kd [1] | Kd [2] | CD80+ DCs activated, fold more than 7DW8-5-Glc [3] | CD86+ DCs activated, fold more than 7DW8-5-Glc [3] | DCs expanded, fold more than 7DW8-5-Glc [3] | splenocytes expanded, fold more than 7DW8-5-Glc [3] | induction of serum cytokines/chemokines [4] | Ratio of IFN-γ/IL-4 compared with C1 [5]
1 | CCCCCCCCCCCCCCCCCCCCCCCCCC(=O)N[C@@H](CO[C@H]1O[C@H](CO)[C@H](O)[C@H](O)[C@H]1O)[C@H](O)[C@H](O)CCCCCCCCCCCCCC [Compound C1, α-Galactosyl ceramide, reference compound] | 16.4 ± 4.2 nM | 1.24 ± 0.003 nM |  |  |  |  |  | 
2 | CCC(=O)N[C@@H](CO[C@H]1OC(CO)[C@@H](O)C(O)C1O)[C@H](O)[C@H](O)CC (some centres unmarked) [Compound C1-Glc] | 8.55 ± 0.617 nM | 5.14 ± 0.11 nM | ~3.5 fold | ~3 fold | ~1.3 fold | ~1.3 fold | triggered both cytokines and chemokines | 
3 | CC[C@@H](O)[C@@H](O)[C@H](CO[C@H]1OC(CO)[C@@H](O)C(O)C1O)NC(=O)Cc1ccc(Oc2ccc(F)cc2)cc1 (some centres unmarked) [Compound C34-Glc] | 0.378 ± 0.019 nM | 7.96 ± 1.27 nM | ~2 fold | ~2 fold |  |  | triggered both cytokines and chemokines | 
4 | CCCCCCCCCCCCCCC(O)C(O)C(COC1OC(CO)C(O)C(O)C1O)NC(=O)CCCCCCCCCCc1ccc(Oc2ccc(F)cc2)cc1 (centres unmarked) [Compound C34] | 0.498 ± 0.005 nM | 0.735 ± 0.01 nM |  |  |  |  |  | significantly higher
